Test results as given in publication PMC6271976, “Inhibition of Human Cytochrome P450 Enzymes by Bacopa monnieri Standardized Extract and Constituents” (Molecules, 2014).

Legend:
CYP1A2 = target: T1, CYP1A2 (Homo sapiens, UniProt P05177); assay: Luminescent P450-Glo recombinant human CYP1A2 inhibition assay
T1 sequence (P05177 2-516 limits assumed): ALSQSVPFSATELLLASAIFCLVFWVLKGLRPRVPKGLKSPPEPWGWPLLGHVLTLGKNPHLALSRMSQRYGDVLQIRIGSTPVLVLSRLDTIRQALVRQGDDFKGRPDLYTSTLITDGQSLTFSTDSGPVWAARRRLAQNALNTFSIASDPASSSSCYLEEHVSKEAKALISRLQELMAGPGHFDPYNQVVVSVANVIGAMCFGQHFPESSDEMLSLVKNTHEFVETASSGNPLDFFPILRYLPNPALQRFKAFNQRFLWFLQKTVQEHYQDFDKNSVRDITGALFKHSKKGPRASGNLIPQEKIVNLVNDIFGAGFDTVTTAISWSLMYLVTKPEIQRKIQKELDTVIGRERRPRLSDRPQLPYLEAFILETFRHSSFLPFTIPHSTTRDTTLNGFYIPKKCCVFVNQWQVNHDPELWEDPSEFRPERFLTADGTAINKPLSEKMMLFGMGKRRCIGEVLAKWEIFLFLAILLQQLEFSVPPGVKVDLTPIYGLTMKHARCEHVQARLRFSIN
From the text: (§1) The inhibitory effects of B. monnieri standardized extract and the constituents bacoside A, bacoside A3, bacopaside II, bacopaside X, bacopasaponin C and bacopaside I on human cytochrome P450 enzyme were examined using an in vitro luminescent assay. The P450-Glo™ substrates are converted by CYP enzymes to a luciferin product that reacts with a Luciferin Detection Reagent to produce light. The amount of light produced is directly proportional to the CYP enzyme activity. The net signals from untreated (added with buffer or solvent) CYP reactions represent total CYP activity (without any inhibition = 100%). […] The test compounds that inhibit CYP enzymes caused a reduction in CYP activity and therefore generated less light/signal.
(§2) The assay was carried out using P450-Glo™ Screening System (Cat.# V9770, V9790, V9880, V9890, V9910) from Promega (Madison, WI, USA). The system includes a membrane preparation containing recombinant human cytochrome P450 (CYP) enzyme, negative control membranes, a luminogenic substrate appropriate for the CYP enzyme, an NADPH regeneration system (containing nicotinamide adenine dinucleotide phosphate (NADP^+), glucose-6-phosphate, magnesium chloride (MgCl2) and glucose-6-phosphate dehydrogenase functioning to initiate and sustain the CYP450 reaction by maintaining a non-limiting NADPH system), reaction buffer, Luciferin Detection Reagent and Luciferin-Free Water. The membranes were prepared from baculovirus-infected insect cells and contained recombinant human CYP enzyme and P450 reductase (and cytochrome b5 for CYP2C9, 2C19 and 3A4). The negative control membranes were devoid of CYP activity. The dried powder of B. monnieri standardized methanolic extract containing 50% bacosides (batch No.: C92352/H) was purchased from Sami Labs Ltd. (Karnataka, India). Bacoside A, bacoside A3, bacopaside II, bacopaside X, bacopasaponin C and bacopaside I were purchased from Chromadex Inc. (Irvine, CA, USA).
(§3) The enzyme assay was performed in 96-well white bottom flat plates (Nunc, Roskilde, Denmark). The concentration of B. monnieri extract was 0.01–1000 µg/mL, and the positive controls and compounds (bacoside A, bacoside A3, bacopaside II, bacopaside X, bacopasaponin C and bacopaside I) were 0.01–100 µM. The concentration of the extracts, compounds and positive controls were prepared at 4× the original concentration. All extracts and compounds were dissolved in dimethyl sulfoxide (DMSO). The organic solvent was kept below 0.25% (v/v) in the incubation mixture. First, 12.5 μL of the 4× test compounds or positive controls (appropriate for each enzyme) were added to the “treated” wells. For the “untreated” (the values from these wells represent total CYP activity) and “minus-P450 control” wells (the values from these wells represent the CYP-independent background luminescence of the assay), 12.5 μL of vehicle (1% DMSO) was added. Then, 12.5 μL of the 4× control reaction mixture (containing membrane preparations devoid of CYP enzymes, the appropriate luminogenic substrate, and potassium phosphate buffer) were added to the minus-P450 control wells, and 12.5 μL of the 4× reaction mixture (containing human CYP membrane preparations, the appropriate luminogenic substrate, and potassium phosphate buffer) were added to all other wells. The plate was pre-incubated at room temperature for 10 min, and then 2× NADPH regeneration system was added to initiate the reaction. After incubation at room temperature for 30 min (45 min for CYP2D6), 50 μL of the reconstituted Luciferin Detection Reagent was added to stop the reaction and generate the luminescent signal. Before reading, the plate was incubated at room temperature for 20 min to stabilize the luminescent signal. The luminescence in all of the samples was measured using an Infinite F200 plate reader (Tecan, Männedorf, Switzerland).

CYP3A4 = CYP3A4 (Homo sapiens, UniProt P08684); assay: Luminescent P450-Glo recombinant human CYP3A4 inhibition assay
From the text: as §1, §2, §3

CYP2C9 = CYP2C9 (Homo sapiens, UniProt P11712); assay: Luminescent P450-Glo recombinant human CYP2C9 inhibition assay
From the text: as §1, §2, §3

CYP2C19 = CYP2C19 (Homo sapiens, UniProt P33261); assay: Luminescent P450-Glo recombinant human CYP2C19 inhibition assay
From the text: as §1, §2, §3

CYP2D6 = CYP2D6 (Homo sapiens, UniProt P10635); assay: Luminescent P450-Glo recombinant human CYP2D6 inhibition assay
From the text: as §1, §2, §3

Sequence of CYP2C9 (P11712 whole entry): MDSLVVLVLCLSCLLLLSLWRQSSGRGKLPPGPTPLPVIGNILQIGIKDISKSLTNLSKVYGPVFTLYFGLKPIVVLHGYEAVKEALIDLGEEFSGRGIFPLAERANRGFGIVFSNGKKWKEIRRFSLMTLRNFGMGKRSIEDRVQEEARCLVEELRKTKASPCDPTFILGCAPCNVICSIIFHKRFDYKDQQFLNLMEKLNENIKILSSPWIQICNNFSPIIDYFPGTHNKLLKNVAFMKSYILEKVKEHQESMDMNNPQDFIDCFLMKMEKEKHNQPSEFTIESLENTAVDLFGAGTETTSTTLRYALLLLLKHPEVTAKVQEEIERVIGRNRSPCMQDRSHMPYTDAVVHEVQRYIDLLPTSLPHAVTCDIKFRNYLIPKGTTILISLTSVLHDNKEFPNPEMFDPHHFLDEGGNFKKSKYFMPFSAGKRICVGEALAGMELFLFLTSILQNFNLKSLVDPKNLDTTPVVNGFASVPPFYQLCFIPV
Sequence of CYP2C19 (P33261 whole entry): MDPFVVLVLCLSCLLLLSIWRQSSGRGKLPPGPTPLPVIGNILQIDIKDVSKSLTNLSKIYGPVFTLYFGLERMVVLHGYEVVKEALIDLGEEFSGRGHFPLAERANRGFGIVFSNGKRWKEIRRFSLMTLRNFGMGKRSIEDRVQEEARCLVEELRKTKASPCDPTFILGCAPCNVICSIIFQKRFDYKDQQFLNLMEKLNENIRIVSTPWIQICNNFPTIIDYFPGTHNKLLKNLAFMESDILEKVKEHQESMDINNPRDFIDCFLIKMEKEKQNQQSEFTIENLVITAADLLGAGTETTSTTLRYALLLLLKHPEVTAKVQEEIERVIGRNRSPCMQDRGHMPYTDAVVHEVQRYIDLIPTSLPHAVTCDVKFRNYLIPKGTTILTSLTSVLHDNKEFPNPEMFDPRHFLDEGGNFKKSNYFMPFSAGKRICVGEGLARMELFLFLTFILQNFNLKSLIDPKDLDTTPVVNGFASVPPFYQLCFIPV
Sequence of CYP2D6 (P10635 whole entry): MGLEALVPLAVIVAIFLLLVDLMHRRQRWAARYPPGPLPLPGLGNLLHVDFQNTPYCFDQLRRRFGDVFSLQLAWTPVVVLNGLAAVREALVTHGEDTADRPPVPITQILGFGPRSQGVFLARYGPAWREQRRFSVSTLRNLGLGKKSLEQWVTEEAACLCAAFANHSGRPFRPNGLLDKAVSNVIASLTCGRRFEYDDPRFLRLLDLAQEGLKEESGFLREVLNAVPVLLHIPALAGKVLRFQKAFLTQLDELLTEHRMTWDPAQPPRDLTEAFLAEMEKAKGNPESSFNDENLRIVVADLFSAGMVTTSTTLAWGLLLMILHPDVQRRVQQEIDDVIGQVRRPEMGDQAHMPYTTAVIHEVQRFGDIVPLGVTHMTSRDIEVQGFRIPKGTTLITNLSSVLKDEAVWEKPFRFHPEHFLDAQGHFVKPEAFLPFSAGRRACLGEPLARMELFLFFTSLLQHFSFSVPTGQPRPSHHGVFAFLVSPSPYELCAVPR
Sequence of CYP3A4 (P08684 2-503): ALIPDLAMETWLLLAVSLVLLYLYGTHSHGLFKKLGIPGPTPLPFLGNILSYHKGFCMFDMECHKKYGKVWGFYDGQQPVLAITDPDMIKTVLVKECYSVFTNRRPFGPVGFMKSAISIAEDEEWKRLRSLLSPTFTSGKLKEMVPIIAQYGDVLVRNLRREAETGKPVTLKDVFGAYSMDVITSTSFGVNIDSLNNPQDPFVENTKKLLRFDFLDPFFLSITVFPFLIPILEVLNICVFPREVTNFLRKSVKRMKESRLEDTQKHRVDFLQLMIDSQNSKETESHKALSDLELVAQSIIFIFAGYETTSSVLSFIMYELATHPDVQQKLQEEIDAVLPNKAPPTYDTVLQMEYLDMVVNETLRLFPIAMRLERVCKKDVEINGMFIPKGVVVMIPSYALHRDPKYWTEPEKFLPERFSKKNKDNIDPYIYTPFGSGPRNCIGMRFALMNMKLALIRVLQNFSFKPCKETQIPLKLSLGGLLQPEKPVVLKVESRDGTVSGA

| IC50 (CYP1A2) [µM] | IC50 (CYP3A4) [µM] | IC50 (CYP2C9) [µM] | IC50 (CYP2C19) [µM] | IC50 (CYP2D6) [µM] | SMILES | Inhibition of CYP1A2 in words (CYP1A2; concentrations up to 100 µM) | Inhibition of CYP3A4 in words (CYP3A4; concentrations up to 100 µM) | Inhibition of CYP2C9 in words (CYP2C9; concentrations up to 100 µM) | Inhibition of CYP2C19 in words (CYP2C19; concentrations up to 100 µM) | Inhibition of CYP2D6 in words (CYP2D6; concentrations up to 100 µM) |
| --- | --- | --- | --- | --- | --- | --- | --- | --- | --- | --- |
| > 100 | > 100 | > 100 | > 100 | > 100 | CC(C)=C[C@@H]1CO[C@]23C[C@]4(CO2)[C@H](CC[C@@H]2[C@@]5(C)CC[C@H](O[C@@H]6OC[C@H](O)[C@H](O[C@@H]7O[C@H](CO)[C@@H](O)[C@H](O)[C@H]7O)[C@H]6O[C@@H]6O[C@@H](CO)[C@H](O)[C@H]6O)C(C)(C)[C@@H]5CC[C@]24C)[C@H]3[C@@]1(C)O [bacopasaponin C] | – | – | – | – | – |
| > 100 | > 100 | > 100 | > 100 | > 100 | CC(C)=CC1COC23CC4(CO2)C(CCC2C5(C)CCC(OC6OC(CO)C(O)C(OC7OC(CO)C(O)C(O)C7O)C6OC6OC(CO)C(O)C6O)C(C)(C)C5CCC24C)C3C1(C)O (stereo not drawn) [bacopaside II] | – | – | – | – | – |
| > 100 | > 100 | > 100 | > 100 | > 100 | CC(C)=C[C@H]1C[C@](C)(O)[C@@H]2[C@H]3CC[C@@H]4[C@@]5(C)CC[C@H](O[C@@H]6OC[C@H](O)[C@H](O[C@@H]7O[C@H](CO)[C@@H](O)[C@H](O)[C@H]7O)[C@H]6O[C@@H]6O[C@@H](CO)[C@H](O)[C@H]6O)C(C)(C)[C@@H]5CC[C@@]4(C)[C@@]34CO[C@@]2(C4)O1 [bacopaside X] | – | – | – | – | – |

| SMILES | IC50 (CYP1A2) [µM] | IC50 (CYP3A4) [µM] | IC50 (CYP2C9) [µM] | IC50 (CYP2C19) [µM] | IC50 (CYP2D6) [µM] | Inhibition of CYP1A2 in words (CYP1A2; concentrations up to 100 µM) | Inhibition of CYP3A4 in words (CYP3A4; concentrations up to 100 µM) | Inhibition of CYP2C9 in words (CYP2C9; concentrations up to 100 µM) | Inhibition of CYP2C19 in words (CYP2C19; concentrations up to 100 µM) | Inhibition of CYP2D6 in words (CYP2D6; concentrations up to 100 µM) |
| --- | --- | --- | --- | --- | --- | --- | --- | --- | --- | --- |
| CC(C)=CC1COC23CC4(CO2)C(CCC2C5(C)CCC(OC6OCC(O)C(OC7OC(COS(=O)(=O)O)C(O)C(O)C7O)C6OC6OC(CO)C(O)C6O)C(C)(C)C5CCC24C)C3C1(C)O (stereo not drawn) [bacopaside I] | > 100 | > 100 | > 100 | > 100 | > 100 | – | – | – | – | – |
| CC(C)=C[C@H]1C[C@](C)(O)[C@@H]2[C@H]3CC[C@@H]4[C@@]5(C)CC[C@H](O[C@@H]6O[C@H](CO)[C@@H](O)[C@H](O[C@@H]7O[C@H](CO)[C@@H](O)[C@H](O)[C@H]7O)[C@H]6O[C@@H]6O[C@@H](CO)[C@H](O)[C@H]6O)C(C)(C)[C@@H]5CC[C@@]4(C)[C@@]34CO[C@@]2(C4)O1 [bacoside A3] | > 100 | > 100 | > 100 | > 100 | > 100 | negligible inhibition | negligible inhibition | negligible inhibition | negligible inhibition | negligible inhibition |
